Results taken from patent US20070142392A1, “Uses of rifamycins” (ActivBiotics, Inc., priority 2005, published 2007).
≈ marks a conversion by molar mass, not a printed value.

What was measured:
Type in all cases: cell-based
H. flu = test system: H. flu
E. coli = experiment: MIC values, E. coli (Tables 1-4)
S. pneumo. = experiment: MIC values, S. pneumo. (Tables 1-4)
E. faecalis = experiment: MIC values, E. faecalis (Tables 1-4)
S. aureus = experiment: MIC values, S. aureus (Tables 1-4)

| SMILES | MIC H. flu (H. flu) | MIC E. coli (E. coli) | MIC S. pneumo. (S. pneumo.) | MIC E. faecalis (E. faecalis) | MIC S. aureus (S. aureus) |
| --- | --- | --- | --- | --- | --- |
| CO[C@H]1/C=C/O[C@@]2(C)Oc3c(C)c(O)c4c(=O)c(c5oc6cc(N7CCNCC7)cc(O)c6nc-5c4c3C2=O)NC(=O)/C(C)=C\C=C\[C@H](C)[C@H](O)[C@@H](C)[C@@H](O)[C@@H](C)[C@H](O)[C@@H]1C [Compound 107] | 0.12 µg/mL (≈ 0.142 µM) | 4 µg/mL (≈ 4.75 µM) | 0.002 µg/mL (≈ 0.00237 µM) | 0.06 µg/mL (≈ 0.0712 µM) | 0.008 µg/mL (≈ 0.00949 µM) |
| CCOc1c(N2CCN(CC3CC3)CC2)ccc2nc3c4c5c6c(C)c(O)c4c(=O)c(c-3oc12)NC(=O)/C(C)=C\C=C\[C@H](C)[C@H](O)[C@@H](C)[C@@H](O)[C@@H](C)[C@H](O)[C@H](C)[C@@H](OC)/C=C/O[C@@](C)(O6)C5=O [Compound 108] | 1 µg/mL (≈ 1.08 µM) | >8 µg/mL | 0.015 µg/mL (≈ 0.0162 µM) | 0.5 µg/mL (≈ 0.54 µM) | 0.03 µg/mL (≈ 0.0324 µM) |
| CO[C@H]1/C=C/O[C@@]2(C)Oc3c(C)c(O)c4c(=O)c(c5oc6c(F)c(N7CCN(CC(C)C)CC7)ccc6nc-5c4c3C2=O)NC(=O)/C(C)=C\C=C\[C@H](C)[C@H](O)[C@@H](C)[C@@H](O)[C@@H](C)[C@H](O)[C@@H]1C [Compound 109] | 0.5 µg/mL (≈ 0.555 µM) | 8 µg/mL (≈ 8.88 µM) | 0.008 µg/mL (≈ 0.00888 µM) | 0.5 µg/mL (≈ 0.555 µM) | 0.03 µg/mL (≈ 0.0333 µM) |
| CO[C@H]1/C=C/O[C@@]2(C)Oc3c(C)c(O)c4c(=O)c(c5oc6cc(N7CCN(C(=O)C8CC8)CC7)cc(O)c6nc-5c4c3C2=O)NC(=O)/C(C)=C\C=C\[C@H](C)[C@H](O)[C@@H](C)[C@@H](O)[C@@H](C)[C@H](O)[C@@H]1C [Compound 110] | 0.25 µg/mL (≈ 0.274 µM) | 8 µg/mL (≈ 8.78 µM) | 0.004 µg/mL (≈ 0.00439 µM) | 0.5 µg/mL (≈ 0.549 µM) | 0.015 µg/mL (≈ 0.0165 µM) |
| CCc1cc2nc3c4c5c6c(C)c(O)c4c(=O)c(c-3oc2cc1N1CCCCC1)NC(=O)/C(C)=C\C=C\[C@H](C)[C@H](O)[C@@H](C)[C@@H](O)[C@@H](C)[C@H](O)[C@H](C)[C@@H](OC)/C=C/O[C@@](C)(O6)C5=O [Compound 111] | 2 µg/mL (≈ 2.34 µM) | 1 µg/mL (≈ 1.17 µM) | 0.12 µg/mL (≈ 0.141 µM) | 4 µg/mL (≈ 4.68 µM) | 1 µg/mL (≈ 1.17 µM) |
| CO[C@H]1/C=C/O[C@@]2(C)Oc3c(C)c(O)c4c(=O)c(c5oc6cc(N7CCC(C(N)=O)CC7)cc(O)c6nc-5c4c3C2=O)NC(=O)/C(C)=C\C=C\[C@H](C)[C@H](O)[C@@H](C)[C@@H](O)[C@@H](C)[C@H](O)[C@@H]1C [Compound 112] | 0.25 µg/mL (≈ 0.282 µM) | >8 µg/mL | 0.002 µg/mL (≈ 0.00226 µM) | 1 µg/mL (≈ 1.13 µM) | 0.03 µg/mL (≈ 0.0339 µM) |
| CCOC(=O)C1CCN(c2cc(O)c3nc4c5c6c7c(C)c(O)c5c(=O)c(c-4oc3c2)NC(=O)/C(C)=C\C=C\[C@H](C)[C@H](O)[C@@H](C)[C@@H](O)[C@@H](C)[C@H](O)[C@H](C)[C@@H](OC)/C=C/O[C@@](C)(O7)C6=O)CC1 [Compound 113] | 0.12 µg/mL (≈ 0.131 µM) | >8 µg/mL | 0.008 µg/mL (≈ 0.00875 µM) | 0.5 µg/mL (≈ 0.547 µM) | 0.004 µg/mL (≈ 0.00438 µM) |
| CO[C@H]1/C=C/O[C@@]2(C)Oc3c(C)c(O)c4c(=O)c(c5oc6cc(N7CCC(F)CC7)ccc6nc-5c4c3C2=O)NC(=O)/C(C)=C\C=C\[C@H](C)[C@H](O)[C@@H](C)[C@@H](O)[C@@H](C)[C@H](O)[C@@H]1C [Compound 114] | 0.12 µg/mL (≈ 0.142 µM) | 8 µg/mL (≈ 9.48 µM) | 0.008 µg/mL (≈ 0.00948 µM) | 0.5 µg/mL (≈ 0.592 µM) | 0.03 µg/mL (≈ 0.0355 µM) |
| CO[C@H]1/C=C/O[C@@]2(C)Oc3c(C)c(O)c4c(=O)c(c5oc6cc(N7CCC(F)(F)CC7)ccc6nc-5c4c3C2=O)NC(=O)/C(C)=C\C=C\[C@H](C)[C@H](O)[C@@H](C)[C@@H](O)[C@@H](C)[C@H](O)[C@@H]1C [Compound 115] | 0.25 µg/mL (≈ 0.29 µM) | >8 µg/mL | 0.015 µg/mL (≈ 0.0174 µM) | 1 µg/mL (≈ 1.16 µM) | 0.03 µg/mL (≈ 0.0348 µM) |
| CO[C@H]1/C=C/O[C@@]2(C)Oc3c(C)c(O)c4c(=O)c(c5oc6cc(N7CCCC7)c(C7CCCCC7)cc6nc-5c4c3C2=O)NC(=O)/C(C)=C\C=C\[C@H](C)[C@H](O)[C@@H](C)[C@@H](O)[C@@H](C)[C@H](O)[C@@H]1C [Compound 118] | 8 µg/mL (≈ 8.95 µM) | >8 µg/mL | 0.25 µg/mL (≈ 0.28 µM) | >8 µg/mL | 2 µg/mL (≈ 2.24 µM) |
| CO[C@H]1/C=C/O[C@@]2(C)Oc3c(C)c(O)c4c(=O)c(c5oc6c(C)c(N7CCCC7)cc(C)c6nc-5c4c3C2=O)NC(=O)/C(C)=C\C=C\[C@H](C)[C@H](O)[C@@H](C)[C@@H](O)[C@@H](C)[C@H](O)[C@@H]1C [Compound 119] | 2 µg/mL (≈ 2.38 µM) | >8 µg/mL | 0.5 µg/mL (≈ 0.595 µM) | 2 µg/mL (≈ 2.38 µM) | 0.5 µg/mL (≈ 0.595 µM) |
| CO[C@H]1/C=C/O[C@@]2(C)Oc3c(C)c(O)c4c(=O)c(c5oc6cc(N7CCCC7)c(C)c(C)c6nc-5c4c3C2=O)NC(=O)/C(C)=C\C=C\[C@H](C)[C@H](O)[C@@H](C)[C@@H](O)[C@@H](C)[C@H](O)[C@@H]1C [Compound 120] | 1 µg/mL (≈ 1.19 µM) | >8 µg/mL | 0.06 µg/mL (≈ 0.0714 µM) | 4 µg/mL (≈ 4.76 µM) | 0.5 µg/mL (≈ 0.595 µM) |
| COc1c(N2CCCC2)cc(C)c2nc3c4c5c6c(C)c(O)c4c(=O)c(c-3oc12)NC(=O)/C(C)=C\C=C\[C@H](C)[C@H](O)[C@@H](C)[C@@H](O)[C@@H](C)[C@H](O)[C@H](C)[C@@H](OC)/C=C/O[C@@](C)(O6)C5=O [Compound 121] | 0.12 µg/mL (≈ 0.14 µM) | 8 µg/mL (≈ 9.35 µM) | 0.03 µg/mL (≈ 0.035 µM) | 2 µg/mL (≈ 2.34 µM) | 0.06 µg/mL (≈ 0.0701 µM) |
| CO[C@H]1/C=C/O[C@@]2(C)Oc3c(C)c(O)c4c(=O)c(c5oc6cc(N7CCCC7)c(F)cc6nc-5c4c3C2=O)NC(=O)/C(C)=C\C=C\[C@H](C)[C@H](O)[C@@H](C)[C@@H](O)[C@@H](C)[C@H](O)[C@@H]1C [Compound 123] | 0.12 µg/mL (≈ 0.145 µM) | 8 µg/mL (≈ 9.64 µM) | 0.06 µg/mL (≈ 0.0723 µM) | 1 µg/mL (≈ 1.2 µM) | 0.03 µg/mL (≈ 0.0361 µM) |
| CO[C@H]1/C=C/O[C@@]2(C)Oc3c(C)c(O)c4c(=O)c(c5oc6cc(N7CCCN(C)CC7)cc(O)c6nc-5c4c3C2=O)NC(=O)/C(C)=C\C=C\[C@H](C)[C@H](O)[C@@H](C)[C@@H](O)[C@@H](C)[C@H](O)[C@@H]1C [Compound 124] | 0.25 µg/mL (≈ 0.287 µM) | 4 µg/mL (≈ 4.59 µM) | 0.00012 µg/mL (≈ 0.000138 µM) | 0.03 µg/mL (≈ 0.0344 µM) | 0.004 µg/mL (≈ 0.00459 µM) |
| CO[C@H]1/C=C/O[C@@]2(C)Oc3c(C)c(O)c4c(=O)c(c5sc6cc(N7CCCN(C)CC7)ccc6nc-5c4c3C2=O)NC(=O)/C(C)=C\C=C\[C@H](C)[C@H](O)[C@@H](C)[C@@H](O)[C@@H](C)[C@H](O)[C@@H]1C [Compound 125] | 0.12 µg/mL (≈ 0.138 µM) | 2 µg/mL (≈ 2.3 µM) | 0.00025 µg/mL (≈ 0.000287 µM) | 0.25 µg/mL (≈ 0.287 µM) | 0.002 µg/mL (≈ 0.0023 µM) |
| CO[C@H]1/C=C/O[C@@]2(C)Oc3c(C)c(O)c4c(=O)c(c5oc6c(C)c(N7CCC7)cc(C)c6nc-5c4c3C2=O)NC(=O)/C(C)=C\C=C\[C@H](C)[C@H](O)[C@@H](C)[C@@H](O)[C@@H](C)[C@H](O)[C@@H]1C [Compound 126] | 0.25 µg/mL (≈ 0.303 µM) | 8 µg/mL (≈ 9.69 µM) | 0.004 µg/mL (≈ 0.00484 µM) | 1 µg/mL (≈ 1.21 µM) | 0.03 µg/mL (≈ 0.0363 µM) |
| CO[C@H]1/C=C/O[C@@]2(C)Oc3c(C)c(O)c4c(=O)c(c5oc6cc(N(C)CC(C)C)cc(O)c6nc-5c4c3C2=O)NC(=O)/C(C)=C\C=C\[C@H](C)[C@H](O)[C@@H](C)[C@@H](O)[C@@H](C)[C@H](O)[C@@H]1C [Compound 128] | 0.5 µg/mL (≈ 0.592 µM) | >8 µg/mL | 0.002 µg/mL (≈ 0.00237 µM) | 0.5 µg/mL (≈ 0.592 µM) | 0.015 µg/mL (≈ 0.0178 µM) |
| CO[C@H]1/C=C/O[C@@]2(C)Oc3c(C)c(O)c4c(=O)c(c5oc6cc(N(C)C7CCN(C)CC7)cc(O)c6nc-5c4c3C2=O)NC(=O)/C(C)=C\C=C\[C@H](C)[C@H](O)[C@@H](C)[C@@H](O)[C@@H](C)[C@H](O)[C@@H]1C [Compound 129] | 0.25 µg/mL (≈ 0.282 µM) | 4 µg/mL (≈ 4.52 µM) | 0.00025 µg/mL (≈ 0.000282 µM) | 0.5 µg/mL (≈ 0.565 µM) | 0.004 µg/mL (≈ 0.00452 µM) |
| CO[C@H]1/C=C/O[C@@]2(C)Oc3c(C)c(O)c4c(=O)c(c5oc6cc(N(C)CCC#N)ccc6nc-5c4c3C2=O)NC(=O)/C(C)=C\C=C\[C@H](C)[C@H](O)[C@@H](C)[C@@H](O)[C@@H](C)[C@H](O)[C@@H]1C [Compound 130] | 0.12 µg/mL (≈ 0.145 µM) | 8 µg/mL (≈ 9.7 µM) | 0.008 µg/mL (≈ 0.0097 µM) | 0.5 µg/mL (≈ 0.606 µM) | 0.06 µg/mL (≈ 0.0727 µM) |
| CO[C@H]1/C=C/O[C@@]2(C)Oc3c(C)c(O)c4c(=O)c(c5oc6cc(N7CCOCC7)cc(O)c6nc-5c4c3C2=O)NC(=O)/C(C)=C\C=C\[C@H](C)[C@H](O)[C@@H](C)[C@@H](O)[C@@H](C)[C@H](O)[C@@H]1C [Compound 131] | 0.12 µg/mL (≈ 0.142 µM) | >8 µg/mL | 0.00025 µg/mL (≈ 0.000296 µM) | 0.06 µg/mL (≈ 0.0711 µM) | 0.004 µg/mL (≈ 0.00474 µM) |
| CO[C@H]1/C=C/O[C@@]2(C)Oc3c(C)c(O)c4c(=O)c(c5sc6cc(N7CCOCC7)ccc6nc-5c4c3C2=O)NC(=O)/C(C)=C\C=C\[C@H](C)[C@H](O)[C@@H](C)[C@@H](O)[C@@H](C)[C@H](O)[C@@H]1C [Compound 132] | 0.06 µg/mL (≈ 0.0711 µM) | 4 µg/mL (≈ 4.74 µM) | 0.001 µg/mL (≈ 0.00118 µM) | 0.5 µg/mL (≈ 0.592 µM) | 0.015 µg/mL (≈ 0.0178 µM) |
